{"source": "paper PMC7998760", "about": "“Solubility, Permeability, Anti-Inflammatory Action and In Vivo Pharmacokinetic Properties of Several Mechanochemically Obtained Pharmaceutical Solid Dispersions of Nimesulide” (Molecules, 2021)", "key": {"[1]": {"description": "In this study, the stability constant and stoichiometry of the complex were calculated using Benesi-Hildebrant diagram (Equation (1)):Δδmax/Δδ − 1 = 1/[CD]^n × 1/K(1) where K is the stability constant of the complex, and Δδ is change of chemical shift.\nMeasurement of K values at different temperatures at 30–50 °C allows us to calculate the thermodynamic parameters of the HP-β-CD complex. From the dependence of R × lnK vs. 1/T using formulas (Equation (2)) and (Equation (3)), one can calculate the main thermodynamic parameters of complexation: the change in the Gibbs energy, enthalpy, and entropy:R × lnK = −ΔH^0/T + ΔS^0(2) ΔG^0 = ΔH^0 − TΔS^0(3)\n^1H-NMR spectra were recorded on an Avance III 500 MHz spectrometer (Bruker, Rheinstetten, Germany) in D2O and CD3OD (99.8%, Sigma-Aldrich, Moscow, Russia) solutions as well as in their mixture. Spin-spin relaxation time T2 was measured by the Carr-Purcell-Meiboom-Gill (CPMG) pulse sequence."}, "histamine edema": {"system": "histamine edema", "test": "Anti-inflammatory study, histamine edema model", "format": "in vivo, CD-1 mice", "details": "oral single administration, doses 5, 10, 20 mg/kg of NIM, p < 0.05 compare to control", "description": "(§1) CD-1 mice weighing 20–25 g were obtained from the vivarium of the Institute of Cytology and Genetic SB RAS. Animals were kept under standard conditions with free access to water and food with humidity and temperature-controlled rooms with light and dark 12 h cycles.\n“Histamine swelling” was reproduced by introducing of 0.05 mL of 0.1% histamine solution under aponeurosis of the hind paw. The test compounds were administered by oral gavage 1 h before administration of inflammatory agent. The swelling degree was evaluated after 5 h by comparison the legs mass with inflammatory agent (m1) and without it (m2). The degree of inflammation (ID) for each mouse was calculated by the following formula (Equation (6)): (6) ID=m1−m2/m2×100%\nThe statistical analysis was performed using Mann–Whitney U test. Data shown as Mean ± SEM. p < 0.05 was considered to be statistically significant."}, "[2]": {"test": "Pharmacokinetic study after a single per os administration", "format": "in vivo, CD-1 mice", "description": "as §1\nMice were randomized by weight and divided into groups and deprived of food for 12 h prior to the experiment. […] Complexes were dissolved in distilled water. […] Blood samples were withdrawn after decapitation at 5, 15, 30, 45, 60, 90 120, 180 and 300 min (n = 5 for each time point) after introduction. Then, all the blood samples were centrifuged for 15 min at 1640× g and the supernatant serum fraction was transferred to empty tubes and kept frozen at −20 °C prior to analysis. The preparation of a blood sample was carried out according to the method described by. Briefly, the mouse plasma sample (0.2 mL) was transferred into glass test tube. 3 mL mixture solvent of ethyl acetate and hexane (90:10%, v/v) was added to the tubes and was vortexed for 3 min. Following a centrifugation for 7 min, 1.5 mL of organic phase was removed to another tube and evaporated. The dry residue was reconstituted with 100 μL of acetonitrile, vortexed for 30 s and 20 μL of the mixture was injected into the chromatograph. However, in contrast with noted reference we use HPLC conditions as described in HPLC analyses of this section."}, "[3]": {"details": "alcohol solution, 400 nm"}, "[4]": {"details": "CD-1, mouse, serum, oral, 20 mg/kg"}, "[5]": {"details": "single per os, NIM dose 20 mg/kg, mice"}}, "data": [{"smiles": "CS(=O)(=O)Nc1ccc([N+](=O)[O-])cc1Oc1ccccc1", "note": "[NIM, N-(4-nitro-2-phenoxyphenyl)methanesulfonamide]", "values": [{"measurement": "stability constant of the complex with HP-β-CD, cycle A", "setting": "[1]; 30 °C, 1:1 complex", "result": 140, "unit": "M⁻¹"}, {"measurement": "stability constant of the complex with HP-β-CD, cycle B", "setting": "[1]; 30 °C, 1:1 complex", "result": 490, "unit": "M⁻¹"}, {"measurement": "TΔS^0 of complexation with HP-β-CD, cycle A", "setting": "[1]; 303 K", "result": "-28 ± 1.3", "unit": "kJ/mol"}, {"measurement": "TΔS^0 of complexation with HP-β-CD, cycle B", "setting": "[1]; 303 K", "result": "-34.3 ± 2.1", "unit": "kJ/mol"}, {"measurement": "ΔG^0 of complexation with HP-β-CD, cycle B", "setting": "[1]; 303 K", "result": -12.6, "unit": "kJ/mol"}, {"measurement": "ΔH^0 of complexation with HP-β-CD, cycle A", "setting": "[1]; 303 K", "result": "-43.9 ± 2.1", "unit": "kJ/mol"}, {"measurement": "ΔH^0 of complexation with HP-β-CD, cycle B", "setting": "[1]; 303 K", "result": "-51 ± 4.18", "unit": "kJ/mol"}, {"measurement": "dose of NIM with significant anti-inflammatory effect", "setting": "histamine edema", "result": 20, "unit": "mg/kg"}, {"measurement": "Tmax", "setting": "[2]; [4]", "result": 0.572, "unit": "h"}, {"measurement": "half-life", "setting": "[2]; [4]", "result": "1.48 ± 0.347", "unit": "h"}, {"measurement": "AUC 0-inf_obs", "setting": "[2]; [5]", "result": "3978.88 ± 242.62", "unit": "mkg/mL*min"}, {"measurement": "Cmax", "setting": "[2]; [5]", "result": "38.43 ± 3.25", "unit": "mkg/mL"}, {"measurement": "stability constant of the chelate complex with magnesium ions", "setting": "[3]", "result": "22,300 ± 7400 M^−1"}]}]}
